# Test results taken from article PMC5517562, “Design and discovery of novel monastrol-1,3,5-triazines as potent anti-breast cancer agent via attenuating Epidermal Growth Factor Receptor tyrosine kinase” (Scientific Reports, 2017).
# Like-named read-outs stand apart in the source and are kept apart here.
# Tests used:
# [1] = system: HepG2 (Hepatocellular carcinoma); assay: MTT in vitro cytotoxicity assay, HepG2; assay type: cell-based, human; settings: NA: Not active
# Protocol: (§1) The synthesized compounds were evaluated for in-vitro cytotoxic activity against various cell lines such as HeLa (cervical cancer), MCF-7 (breast cancer), HL-60 (Human promyelocytic leukemia), HepG2 (Hepatocellular carcinoma) and MCF 12A (normal epithelial cell) by the MTT assay method. […] The relationship between surviving fraction and drug concentration was plotted to obtain the survival curve of all the cancer cell lines HeLa, MCF-7, HL-60 and HepG2. The response parameter calculated was the IC50 values, which responds to the concentration required for 50% inhibition of cell viability. The in-vitro cytotoxic activity of the synthesized compounds is summarized Table 3.
# (§2) The target compounds were subjected to in vitro cytotoxicity bioassay. In vitro cytotoxicity was determined using a standard MTT assay with protocol appropriate for the individual test system[29]–[31]. The four human cancer cell lines HeLa, MCF-7, HL-60, HepG2 and MCF-12A were cultured in the MEM medium supplemented with 10% FBS, 1% glutamine and […] gentamicin sulfate in a CO2 incubator in a humidified atmosphere of 5% CO2 and 95% air. The test compounds were prepared prior to the experiment by dissolving in 0.1% DMSO and diluted with medium. The cells were then exposed to different concentrations of drugs ([…]) in the volume of […]. Cells in the control wells received the same volume of medium containing 0.1% DMSO. After 24 h, the medium was removed and cell cultures were incubated with […] MTT reagent (1 mg/ml) for 5 h at 37 °C. The known number of cells ([…]) was incubated in a 5% CO2 incubator at 37 °C in the presence of different concentrations of test compounds. After 48 h of drug incubation, the MTT solution was added in each well and absorbance was recorded at 540 nm by an ELISA reader. The experiment was performed in triplicate. Cell survival was calculated as the percentage of MTT inhibition as % growth inhibition = 100 − (mean OD of individual test Group/Mean OD of each Control Group) × 100.
# [2] = system: HL-60 (Human promyelocytic leukemia); assay: MTT in vitro cytotoxicity assay, HL-60; assay type: cell-based
# Protocol: as §1, §2
# [3] = system: MCF-7 (breast cancer); assay: MTT in vitro cytotoxicity assay, MCF-7; assay type: cell-based, human
# Protocol: as §1, §2
# [4] = system: HeLa (cervical cancer); assay: MTT in vitro cytotoxicity assay, HeLa; assay type: cell-based, human
# Protocol: as §1, §2
# [5] = target: T1, EGFR-TK (Homo sapiens, UniProt P00533); assay: EGFR tyrosine kinase inhibitory activity (Kinase-Glo Plus luminescence); assay type: biochemical; settings: for %i: EGFR-TK percent inhibition as repeated in docking Table 5; for Percent of Inhibition, EGFR tyrosine kinase / inhibition at 10 µM: at 10 µM; for inhibition at 10 µM: read-out: Percent of Inhibition, EGFR tyrosine kinase
# T1 construct: 0.2 mg/mL Poly (Glu, Tyr) substrate, 10 mM ATP and EGFR
# Protocol: Kinase activity was determined using Kinase-Glo Plus luminescence kinase assay kit, by quantitating the amount of ATP remaining in the solution of kinase reaction. The luminescent signal is correlated with the residual amount present and it was inversely related with kinase activity. The tested compounds were diluted to 100 mM in 10% DMSO, then […] of the dilution was added to a 50 mL reaction. All of the enzymatic reactions were performed at 30 °C for 40 min, 50 mL of reaction mixture contains 10 mM MgCl2, 40 mM Tris, pH 7.4, 0.1 mg/mL BSA, 0.2 mg/mL Poly (Glu, Tyr) substrate, 10 mM ATP and EGFR. Incubate the plate for 5 min at r.t. then add 50 mL of Kinase-GloPlus Luminescence kinase assay to each reaction. ADP-Glo assay kit is the protein kinase assays used to determine IC50 values in which ADP generation was measured as it leads to an increase in luminescence signal. The reaction mixture was incubated in a 96-well plate at 30 °C for 30 min, after the incubation period add 25 mL of ADP-Glo reagent to terminate the assay. Shake the 96-well plate for 30 min at ambient temperature then incubate it, then add 50 mL of kinase detection reagent. Read the 96-well plate using the ADP-Glo Luminescence reader. All the assay components were added to the blank control except the substrate. By removing the blank control value you can obtain the corrected activity for each protein kinase target.
# [6] = system: MCF 12A (normal epithelial breast cell line); assay: MTT assay on normal cells, MCF 12A; assay type: cell-based, human; settings: normal epithelial breast cell MCF 12A; for IC50: Homo sapiens
# Protocol: as §1
# The presence of non-halogen substituent along with electron donating substituent seriously jeopardise the anticancer potential. […] To determine the selectivity of these molecules between normal and cancerous cells, the designed compounds were also tested against MCF 12A, a normal epithelial breast cell.
# as §2
# T1 sequence (P00533 25-1210): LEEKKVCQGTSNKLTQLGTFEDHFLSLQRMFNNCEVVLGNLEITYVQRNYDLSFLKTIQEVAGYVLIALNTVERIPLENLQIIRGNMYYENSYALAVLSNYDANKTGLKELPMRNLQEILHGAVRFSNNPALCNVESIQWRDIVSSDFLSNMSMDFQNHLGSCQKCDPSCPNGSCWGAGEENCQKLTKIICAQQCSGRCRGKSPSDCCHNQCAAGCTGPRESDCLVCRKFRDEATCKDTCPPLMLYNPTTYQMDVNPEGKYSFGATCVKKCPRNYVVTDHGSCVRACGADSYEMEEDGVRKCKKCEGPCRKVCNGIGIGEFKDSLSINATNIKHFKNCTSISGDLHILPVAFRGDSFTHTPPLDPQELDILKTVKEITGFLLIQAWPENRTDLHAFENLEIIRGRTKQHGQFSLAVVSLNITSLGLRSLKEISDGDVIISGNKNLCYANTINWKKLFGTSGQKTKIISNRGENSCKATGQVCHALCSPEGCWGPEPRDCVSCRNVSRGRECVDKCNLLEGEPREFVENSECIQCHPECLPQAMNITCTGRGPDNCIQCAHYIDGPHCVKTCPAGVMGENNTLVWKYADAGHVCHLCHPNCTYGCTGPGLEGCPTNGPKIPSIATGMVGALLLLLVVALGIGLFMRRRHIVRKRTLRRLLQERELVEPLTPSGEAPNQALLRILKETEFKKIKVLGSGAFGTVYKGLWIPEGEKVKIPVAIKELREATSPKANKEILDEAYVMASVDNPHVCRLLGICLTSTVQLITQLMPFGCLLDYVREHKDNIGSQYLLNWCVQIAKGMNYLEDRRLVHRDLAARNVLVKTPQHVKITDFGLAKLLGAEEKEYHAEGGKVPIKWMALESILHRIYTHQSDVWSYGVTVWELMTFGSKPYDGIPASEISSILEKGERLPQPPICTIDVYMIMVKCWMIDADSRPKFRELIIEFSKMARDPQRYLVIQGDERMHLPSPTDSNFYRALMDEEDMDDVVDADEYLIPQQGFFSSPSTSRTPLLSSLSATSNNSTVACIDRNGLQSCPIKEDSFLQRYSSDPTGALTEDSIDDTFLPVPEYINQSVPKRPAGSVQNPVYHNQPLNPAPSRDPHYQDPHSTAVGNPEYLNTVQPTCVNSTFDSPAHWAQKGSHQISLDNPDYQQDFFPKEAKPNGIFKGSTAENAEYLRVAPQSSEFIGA
melting point,inhibition at 10 µM [5],SMILES,IC50 ([1]; Homo sapiens),IC50 ([2]; Homo sapiens),"IC50 ([3]; Homo sapiens, MCF7)",IC50 ([4]; Homo sapiens),%i [5],"Percent of Inhibition, EGFR tyrosine kinase [5]",IC50 MCF 12A [6],IC50 [6],IC50 [1],IC50 [2],IC50 [3],IC50 [4]
161 to 163 °C,74.8%,"CCOC(=O)C1=C(C)N(c2nc(Nc3cccc(Cl)c3)nc(Nc3cccc(Cl)c3)n2)C(=S)NC1c1ccc(O)cc1 (stereo not shown) [7d, Ethyl 1-(4,6-bis((3-chlorophenyl)amino)-1,3,5-triazin-2-yl)-4-(4-hydroxyphenyl)-6-methyl-2-thioxo-1,2,3,4-tetrahydropyrimidine-5-carboxylate]",41.4 ± 0.38 µM,43.2 ± 0.38 µM,61.3 ± 0.78 µM,51.3 ± 0.32 µM,,,non-toxic,,,,,
132 to 135 °C,94.3%,"CCOC(=O)C1=C(C)N(c2nc(Nc3cccc(F)c3)nc(Nc3cccc(F)c3)n2)C(=S)NC1c1ccccc1OC (stereo not shown) [7g, Ethyl 1-(4,6-bis((3-fluorophenyl)amino)-1,3,5-triazin-2-yl)-4-(2-methoxyphenyl)-6-methyl-2-thioxo-1,2,3,4-tetrahydropyrimidine-5-carboxylate]",36.3 ± 0.47 µM,31.5 ± 0.21 µM,47.4 ± 0.27 µM,42.1 ± 0.12 µM,,,,77.22 ± 0.34 µM,,,,
205 to 207 °C,54.2%,"CCOC(=O)C1=C(C)N(c2nc(Nc3ccc(C)cc3)nc(Nc3ccc(C)cc3)n2)C(=S)NC1c1ccccc1C (stereo not shown) [7n, Ethyl 1-(4,6-bis(p-tolylamino)-1,3,5-triazin-2-yl)-6-methyl-2-thioxo-4-(o-tolyl)-1,2,3,4-tetrahydropyrimidine-5-carboxylate]",,104.5 ± 0.39 µM,93.2 ± 0.58 µM,92.6 ± 0.23 µM,,,non-toxic,,,,,
,~69%,"CCOC(=O)C1=C(C)N(c2nc(Nc3cccc(Br)c3)nc(Nc3cccc(Br)c3)n2)C(=S)NC1c1ccc([N+](=O)[O-])cc1 (stereo not shown) [7k, Ethyl 1-(4,6-bis((3-bromophenyl)amino)-1,3,5-triazin-2-yl)-6-methyl-4-(4-nitrophenyl)-2-thioxo-1,2,3,4-tetrahydropyrimidine-5-carboxylate]",59.7 ± 0.69 µM,51.3 ± 0.82 µM,65.6 ± 0.43 µM,66.4 ± 0.67 µM,70.1%,70.1%,non-toxic,,,,,
245 to 247 °C,78.5%,"CCOC(=O)C1=C(C)N(c2nc(Nc3cccc(Br)c3)nc(Nc3cccc(Br)c3)n2)C(=S)NC1c1ccccc1O (stereo not shown) [7e, Ethyl 1-(4,6-bis((3-bromophenyl)amino)-1,3,5-triazin-2-yl)-4-(2-hydroxyphenyl)-6-methyl-2-thioxo-1,2,3,4-tetrahydropyrimidine-5-carboxylate]",65.6 ± 0.45 µM,57.4 ± 0.52 µM,67.8 ± 0.61 µM,63.9 ± 0.25 µM,,,,89.45 ± 0.45 µM,,,,
,,"N.N.[Cl][Pt][Cl] [Cisplatin, reference compound]",,,,,,,non-toxic,,25.9 ± 0.82 µM,12.3 ± 0.76 µM,24.4 ± 0.92 µM,32.5 ± 0.62 µM
131 to 133 °C,45.6%,"CCOC(=O)C1=C(C)N(c2nc(Nc3ccc(C)cc3)nc(Nc3ccc(C)cc3)n2)C(=S)NC1c1ccc(O)cc1 (stereo not shown) [7o, Ethyl 1-(4,6-bis(p-tolylamino)-1,3,5-triazin-2-yl)-4-(4-hydroxyphenyl)-6-methyl-2-thioxo-1,2,3,4-tetrahydropyrimidine-5-carboxylate]",,98.3 ± 0.27 µM,89.4 ± 0.49 µM,94.3 ± 0.78 µM,,,non-toxic,,,,,

SMILES,melting point,inhibition at 10 µM [5],IC50 ([1]; Homo sapiens),IC50 ([2]; Homo sapiens),"IC50 ([3]; Homo sapiens, MCF7)",IC50 ([4]; Homo sapiens),%i [5],"Percent of Inhibition, EGFR tyrosine kinase [5]",IC50 MCF 12A [6],IC50 [6],IC50 [1],IC50 [2],IC50 [3],IC50 [4]
"CCOC(=O)C1=C(C)N(c2nc(Nc3ccccc3[N+](=O)[O-])nc(Nc3ccccc3[N+](=O)[O-])n2)C(=S)NC1c1cccc(Br)c1 (stereo not shown) [7i, Ethyl 1-(4,6-bis((2-nitrophenyl)amino)-1,3,5-triazin-2-yl)-4-(3-bromophenyl)-6-methyl-2-thioxo-1,2,3,4-tetrahydropyrimidine-5-carboxylate]",185 to 186 °C,~69%,71.6 ± 0.29 µM,66.7 ± 0.67 µM,76.4 ± 0.33 µM,76 ± 0.54 µM,69.3%,69.3%,non-toxic,,,,,
